Test results taken from publication PMC10284832, “Cyclic di-AMP traps proton-coupled K^+ transporters of the KUP family in an inward-occluded conformation” (Nature Communications, 2023).
Blank lines part the entries; values can stand above or below the molecule they belong to.

What was measured:
KimA [1] = biological target: T1, KimA (Bacillus subtilis, UniProt P96589); test: differential scanning fluorometry (CPM dye); type: binding; settings: three-fold molar excess c-di-AMP over KimA; KimA purified from cells co-producing CdaA, in DDM; shift fits 48.1 °C (KimA without CdaA) to 54.7 °C; text calls it a further increase although the CdaA sa
T1 construct: full-length membrane protein, homodimer with swapped cytosolic domains; plasmid pB24KimA, expressed in E. coli LB2003
T1 sequence (P96589 1-607): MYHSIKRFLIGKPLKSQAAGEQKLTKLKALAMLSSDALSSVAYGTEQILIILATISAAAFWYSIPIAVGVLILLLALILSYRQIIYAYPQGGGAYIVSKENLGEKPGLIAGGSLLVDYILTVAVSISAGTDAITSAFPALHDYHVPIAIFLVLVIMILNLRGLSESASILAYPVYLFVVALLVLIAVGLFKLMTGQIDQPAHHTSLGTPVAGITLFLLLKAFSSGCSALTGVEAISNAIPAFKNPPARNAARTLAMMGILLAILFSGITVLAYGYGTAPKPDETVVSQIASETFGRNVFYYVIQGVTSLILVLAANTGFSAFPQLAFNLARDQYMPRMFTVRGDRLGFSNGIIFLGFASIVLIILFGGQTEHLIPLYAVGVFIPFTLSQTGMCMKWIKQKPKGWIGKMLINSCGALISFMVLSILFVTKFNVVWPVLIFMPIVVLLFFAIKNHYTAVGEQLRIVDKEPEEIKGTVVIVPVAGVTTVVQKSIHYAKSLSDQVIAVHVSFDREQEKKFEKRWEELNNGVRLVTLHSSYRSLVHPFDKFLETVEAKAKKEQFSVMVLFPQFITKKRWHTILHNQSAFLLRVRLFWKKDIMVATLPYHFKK

KimA [2] = biological target: T2, KimA (Bacillus subtilis, UniProt P96589, R337A); test: whole-cell K+ uptake in E. coli LB2003 (flame AAS); type: cell-based; settings: c-di-AMP made in the cells by co-expressed CdaA (concentration unknown) versus inactive CdaA D171N; 200 mM HEPES TEA pH 7.5; allosteric site in cytosolic domain
T2 construct: full-length membrane protein, homodimer with swapped cytosolic domains; plasmid pB24KimA, expressed in E. coli LB2003

KimA [3] = biological target: T1, KimA; test: whole-cell K+ uptake in E. coli LB2003 (flame AAS); type: cell-based; settings: c-di-AMP made in the cells by co-expressed CdaA (concentration unknown) versus inactive CdaA D171N; 200 mM HEPES TEA pH 7.5; allosteric site in cytosolic domain
KimA [4] = biological target: T3, KimA (Bacillus subtilis, UniProt P96589, N237A); test: differential scanning fluorometry (CPM dye); settings: c-di-AMP binding to variant; method inferred from the DSF section
T3 construct: full-length membrane protein, homodimer with swapped cytosolic domains; plasmid pB24KimA, expressed in E. coli LB2003

KimA [5] = biological target: T1, KimA; test: cryo-EM structure ([…] Å in DDM, […] Å in amphipols); type: binding; settings: two c-di-AMP per dimer, cytosolic domain sites; co-produced with CdaA; ten-fold molar excess added in DDM
[6] = biological target: the molecule itself; test: cryo-EM structure; KimA in DDM at 4.0 mg/ml, purified after co-production with CdaA, ten-fold molar excess of c-di-AMP added after purification; 3.3 Å map with C2 symmetry
[7] = biological target: the molecule itself; test: cryo-EM structure; KimA reconstituted in amphipols (PMAL C8) at 2.25 mg/ml, purified after co-expression with cdaA; 50 mM NaCl, 50 mM KCl, 20 mM Tris-HCl pH 8; 3.8 Å map with C2 symmetry

T2 sequence (P96589 whole entry R337A, the tested form may be a part): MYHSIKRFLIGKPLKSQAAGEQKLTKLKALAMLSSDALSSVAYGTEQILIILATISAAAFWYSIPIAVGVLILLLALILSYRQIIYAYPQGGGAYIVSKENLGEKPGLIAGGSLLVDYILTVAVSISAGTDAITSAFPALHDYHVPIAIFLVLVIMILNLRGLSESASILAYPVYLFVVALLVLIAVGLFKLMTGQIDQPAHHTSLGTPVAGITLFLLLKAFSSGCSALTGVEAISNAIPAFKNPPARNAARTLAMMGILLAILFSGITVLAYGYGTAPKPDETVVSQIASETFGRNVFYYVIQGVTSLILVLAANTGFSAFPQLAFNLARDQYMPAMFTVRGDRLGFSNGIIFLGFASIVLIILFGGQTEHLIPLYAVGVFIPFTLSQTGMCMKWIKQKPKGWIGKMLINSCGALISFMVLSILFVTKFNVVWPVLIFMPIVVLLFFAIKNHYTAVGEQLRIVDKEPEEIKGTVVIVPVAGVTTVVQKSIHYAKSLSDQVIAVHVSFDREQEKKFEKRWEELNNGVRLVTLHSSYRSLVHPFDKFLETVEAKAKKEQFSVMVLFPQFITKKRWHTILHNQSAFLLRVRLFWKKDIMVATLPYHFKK
T3 sequence (P96589 whole entry N237A, the tested form may be a part): as the sequence (P96589 whole entry R337A, the tested form may be a part) above, with N237A, A337R counted along it

dTm (KimA [1]): 6.6 °C
% reduction of Vmax (KimA [2]): ~ 44%
% reduction of Vmax (KimA [3]): ~ 64%
Molecule: Nc1ncnc2c1ncn2[C@@H]1O[C@@H]2COP(=O)(O)O[C@H]3[C@@H](O)[C@H](n4cnc5c(N)ncnc54)O[C@@H]3COP(=O)(O)O[C@H]2[C@H]1O [c-di-AMP]
Tm (KimA [4]): while binding of c-di-AMP was still possible
cryo-EM structure (3.3 Å in DDM, 3.8 Å in amphipols) (KimA [5]): two non-protein densities in the CDs, which were modelled as c-di-AMP

B1: K+/H+ symporter KimA from B. subtilis, in DDM, with bound c-di-AMP (natural protein)
chain: MYHSIKRFLIGKPLKSQAAGEQKLTKLKALAMLSSDALSSVAYGTEQILIILATISAAAFWYSIPIAVGVLILLLALILSYRQIIYAYPQGGGAYIVSKENLGEKPGLIAGGSLLVDYILTVAVSISAGTDAITSAFPALHDYHVPIAIFLVLVIMILNLRGLSESASILAYPVYLFVVALLVLIAVGLFKLMTGQIDQPAHHTSLGTPVAGITLFLLLKAFSSGCSALTGVEAISNAIPAFKNPPARNAARTLAMMGILLAILFSGITVLAYGYGTAPKPDETVVSQIASETFGRNVFYYVIQGVTSLILVLAANTGFSAFPQLAFNLARDQYMPRMFTVRGDRLGFSNGIIFLGFASIVLIILFGGQTEHLIPLYAVGVFIPFTLSQTGMCMKWIKQKPKGWIGKMLINSCGALISFMVLSILFVTKFNVVWPVLIFMPIVVLLFFAIKNHYTAVGEQLRIVDKEPEEIKGTVVIVPVAGVTTVVQKSIHYAKSLSDQVIAVHVSFDREQEKKFEKRWEELNNGVRLVTLHSSYRSLVHPFDKFLETVEAKAKKEQFSVMVLFPQFITKKRWHTILHNQSAFLLRVRLFWKKDIMVATLPYHFKK
notes: KimA, K+/H+ symporter of the KUP family, Bacillus subtilis; expressed from pB24KimA; residues 30-606 are compared in the structures (TMD 30-462, cytosolic domain 462-606); Homodimer with swapped cytosolic domains; A ten-fold molar excess of c-di-AMP was added after purification; The construct has a C-terminal HRV-3C protease site; No cleavage is described for the DDM sample; also called KimA WT; …
binding result [6]: binds

B2: K+/H+ symporter KimA from B. subtilis, reconstituted in amphipols, with bound c-di-AMP (natural protein)
chain: MYHSIKRFLIGKPLKSQAAGEQKLTKLKALAMLSSDALSSVAYGTEQILIILATISAAAFWYSIPIAVGVLILLLALILSYRQIIYAYPQGGGAYIVSKENLGEKPGLIAGGSLLVDYILTVAVSISAGTDAITSAFPALHDYHVPIAIFLVLVIMILNLRGLSESASILAYPVYLFVVALLVLIAVGLFKLMTGQIDQPAHHTSLGTPVAGITLFLLLKAFSSGCSALTGVEAISNAIPAFKNPPARNAARTLAMMGILLAILFSGITVLAYGYGTAPKPDETVVSQIASETFGRNVFYYVIQGVTSLILVLAANTGFSAFPQLAFNLARDQYMPRMFTVRGDRLGFSNGIIFLGFASIVLIILFGGQTEHLIPLYAVGVFIPFTLSQTGMCMKWIKQKPKGWIGKMLINSCGALISFMVLSILFVTKFNVVWPVLIFMPIVVLLFFAIKNHYTAVGEQLRIVDKEPEEIKGTVVIVPVAGVTTVVQKSIHYAKSLSDQVIAVHVSFDREQEKKFEKRWEELNNGVRLVTLHSSYRSLVHPFDKFLETVEAKAKKEQFSVMVLFPQFITKKRWHTILHNQSAFLLRVRLFWKKDIMVATLPYHFKK
notes: KimA, K+/H+ symporter of the KUP family, Bacillus subtilis; expressed from pB24KimA; released from the Ni-NTA beads by cleavage at the C-terminal HRV-3C protease site; Homodimer with swapped cytosolic domains, upright arrangement of the transmembrane domains; Residues of the 3C site probably remain at the C-terminus after cleavage; also called KimA in amphipols; not shown: His tag (from the …)
binding result [7]: binds
